Experimental data reported in US20080249130A1, “Gut microsomal triglyceride transport protein inhibitors” (Sirtris Pharmaceuticals, Inc., priority 2007, published 2008).
pIC50: −log10 of the molar value. Values joined by “and” are separate entries in the source; they are usually repeats but may differ in a detail not shown here. Equal entries are not always repeated. Structures can show the parent of a compound that is named as a salt. Where two headings read alike, the source gives them in different places.

Tests used:
[1] = tested on: secretion of ApoB by HepG2 cells; assay: ApoB secretion inhibition assay in HepG2 cells (ApoB ELISA); assay type: cell-based, human; conditions: Homo sapiens
Method: The ability of the compounds of the present invention to inhibit the secretion of ApoB can be determined using the following cell-based assay, which measures the secretion of ApoB by HepG2 cells. ApoB has two possible metabolic fates: entrance into the lipoprotein assembly pathway within the lumen of the endoplasmic reticulum (ER), or degradation in the cytoplasm by the ubiquitin-dependent proteasome. The destiny of ApoB is determined by the relative availability of individual lipids, which is controlled by MTP (Davis, Biochim. Biophys. Acta, 1999, 1440, 1-31).
HepG2 cells (ATCC, HB-8065) are seeded in 96-well plates in DMEM with 10% FBS+pen/strep at a density of 1×10^5 cells/well (100 μl /well). Twenty-four hours after seeding, the plate is aspirated and the media changed to DMEM with 1% BSA and pen/strep, and the cells are serum-starved for 24 hours. After 24 hour serum-starvation, the plate is aspirated again and the cells are then treated for 24 hours with or without compound in DMEM with 1% BSA, 0.3 mM OA (OA complexed to BSA at a 2:1 ratio) and pen/strep. The final concentration of DMSO in the assay (from compound and control) is 0.1%. After 24 hour treatment, conditioned media is collected in an empty 96-well plate.
Cellular viability is measured using the cell permeable dye, AlamarBlue™. This dye undergoes electron reduction in viable cells but not dead cells. The reduced dye product gives a fluorescent signal which can be monitored with a fluorescence plate reader (excitation 545 nm and emission 575 nm). The amount of fluorescence generated in a given well is proportional to the number of viable cells. After collection, the 96-well plate is re-fed with 100 μl media (DMEM with 10% FBS) and 10 μl Alamar Blue™ per well, incubated for 2 hours and then read in a fluorescence plate reader.
ApoB secretion from HepG2 cells is quantitated by testing the conditioned media at […] using an ApoB ELISA kit (ALerCHEK) according to the manufacturer's instructions. The ELISA assay for ApoB is performed as follows: a polyclonal antibody against human ApoB (Chemicon) is diluted 1:1000 in carbonate-bicarbonate buffer and 100 μl are added to each well of a 96-well plate (NUNC). After 5 hours incubation at room temperature, the antibody solution is removed and wells are washed four times with PBS/0.05% TweenD 20 (Cayman Chemical Co.). Non-specific sites on the plastic plate are blocked by incubating wells for 1 to 1.5 hours in a solution of 0.5% BSA and 0.1% TweenD 20 made in PBS. One hundred microliters of a 1:20 dilution of growth medium from the HepG2 cells (made in 0.004% TweenD 20/1% BSA in PBS) is added to each well and incubated for 3 hours at room temperature. Wells are aspirated and washed four times (0.05% TweenD 20 in PBS) prior to adding 100 μl of a 1:1000 dilution (5 μg/ml) of the secondary antibody, mouse anti-human ApoB (Chemicon). After 2 hours incubation at room temperature, this solution is aspirated and the wells are again washed 4 times as above. One hundred microliters of peroxidase-conjugated affinity purified goat anti-mouse IgG (H+L) (Jackson ImmunoResearch Laboratories) (1:10,000 dilution in PBS/1% BSA/0.1% TweenD 20) is then added to each well and incubated for 1 hour at room temperature. After aspirating, the wells are washed 4 times as above and 50 μl of 1-step Ultra TMB ELISA reagent (Pierce) is added to each well and incubated for 5 minutes. The reaction is stopped by the addition of 50 μl of 2 NH2SO4 and absorbance of each well is read at 450 nm.

MTP = MTP (Homo sapiens, UniProt P55157); assay: In vitro inhibition of MTP, triacylglycerol transfer assay with donor and acceptor liposomes (fluorescence); assay type: biochemical
Method: This assay is commercially available (Cat. #D400, Chylos Inc., New York). Liposomes are pipetted in 5 μl aliquots into the wells of a black fluorescence microtiter plate, followed by addition of 5 μl of water and an incubation of 2-5 min to allow the samples to equilibrate to rt. Next, 5 μl of compound dissolved in DMSO is added to the vesicles. The reaction is initated by the addition of 5 μl MTP, followed by incubation for 30 min at room temperature. […] Time of incubation can be increased to measure low activity in different samples. In such situations, samples are prepared just prior to measuring fluorescence units. For this purpose, isopropanol is added to substrate vesicles about 5 min prior to fluorescence measurement as the fluorescence readings in isopropanol decrease with time.

[2] = HepG2, Table 6, assay of Example 2, read-out: IC50 ApoB Assay
[3] = Table 6, assay of Example 3, read-out: IC50 Enzyme Assay

Sequence of MTP (P55157 19-894, species assumed): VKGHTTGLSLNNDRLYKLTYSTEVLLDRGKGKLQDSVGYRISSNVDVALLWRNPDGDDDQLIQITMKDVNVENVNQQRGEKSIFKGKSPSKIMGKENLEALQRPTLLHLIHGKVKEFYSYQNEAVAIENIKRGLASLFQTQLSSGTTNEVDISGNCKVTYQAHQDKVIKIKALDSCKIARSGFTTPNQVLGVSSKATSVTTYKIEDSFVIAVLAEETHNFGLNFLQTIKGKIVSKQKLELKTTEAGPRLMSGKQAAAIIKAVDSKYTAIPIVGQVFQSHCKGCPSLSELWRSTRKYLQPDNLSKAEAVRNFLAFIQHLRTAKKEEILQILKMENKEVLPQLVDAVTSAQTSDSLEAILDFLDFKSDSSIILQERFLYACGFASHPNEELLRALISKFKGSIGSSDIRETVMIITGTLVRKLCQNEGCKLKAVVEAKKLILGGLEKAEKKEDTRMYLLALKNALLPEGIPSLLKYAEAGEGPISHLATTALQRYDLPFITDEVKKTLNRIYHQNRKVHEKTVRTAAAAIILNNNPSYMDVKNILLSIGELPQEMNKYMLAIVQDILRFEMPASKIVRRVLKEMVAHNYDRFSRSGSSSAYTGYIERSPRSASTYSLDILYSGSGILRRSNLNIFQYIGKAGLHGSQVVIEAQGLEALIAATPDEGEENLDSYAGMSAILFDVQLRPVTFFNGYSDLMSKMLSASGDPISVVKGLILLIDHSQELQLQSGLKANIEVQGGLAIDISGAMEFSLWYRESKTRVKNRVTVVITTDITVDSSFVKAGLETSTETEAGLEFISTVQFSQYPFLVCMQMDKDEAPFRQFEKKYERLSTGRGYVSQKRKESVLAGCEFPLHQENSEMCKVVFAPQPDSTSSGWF
Sequence of MTP (P07237 18-508 partner, species assumed): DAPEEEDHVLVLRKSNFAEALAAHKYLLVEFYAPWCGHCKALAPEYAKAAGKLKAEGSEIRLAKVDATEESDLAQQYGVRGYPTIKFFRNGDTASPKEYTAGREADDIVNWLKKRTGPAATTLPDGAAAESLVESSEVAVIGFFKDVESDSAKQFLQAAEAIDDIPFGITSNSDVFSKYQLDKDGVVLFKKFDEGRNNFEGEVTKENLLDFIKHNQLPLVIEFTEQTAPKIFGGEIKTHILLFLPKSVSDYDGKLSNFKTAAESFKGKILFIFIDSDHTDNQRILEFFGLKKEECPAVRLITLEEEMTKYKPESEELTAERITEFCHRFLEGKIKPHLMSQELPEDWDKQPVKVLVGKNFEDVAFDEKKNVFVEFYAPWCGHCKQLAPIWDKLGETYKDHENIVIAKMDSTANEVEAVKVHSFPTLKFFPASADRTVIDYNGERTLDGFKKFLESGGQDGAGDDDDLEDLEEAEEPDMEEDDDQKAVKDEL

For `CN(Cc1ccc(F)cc1)C(=O)[C@@H](NC(=O)c1nc2ccc(NC(=O)c3ccccc3-c3ccc(C(C)(C)C)cc3)cc2s1)c1ccccc1` (single isomer, unassigned), the pIC50 ([1]; HepG2, Tables 2-5, second symbol of the cell, read-out: IC50 Apo B Secretion Assay (Example 2)) was greater than 7.00 and the pIC50 (MTP; Tables 2-5, first symbol of the cell, read-out: IC50 Tri-acylglycerol (TAG) Transfer Assay (Example 3)) was greater than 7.00.
With `CN(Cc1ccc(F)cc1)C(=O)[C@@H](NC(=O)c1ccc2nc(NC(=O)c3ccccc3C3CCNCC3)ccc2c1)c1ccccc1` [Compound 1, (S)—N-(2-((4-fluorobenzyl)(methyl)amino)-2-oxo-1-phenylethyl)-2-(2-(piperidin-4-yl)benzamido)quinoline-6-carboxamide hydrochloride] the pIC50 [1, 2] was 5.22 and the pIC50 (MTP; [3]) was less than 6.00.
`CN(Cc1ccc(F)cc1)C(=O)[C@@H](NC(=O)c1ccc2nc(NC(=O)c3ccccc3C3CCNC3)ccc2c1)c1ccccc1` (stereo partly drawn) [Compound 2, N—((S)-2-((4-fluorobenzyl)(methyl)amino)-2-oxo-1-phenylethyl)-2-(2-(pyrrolidin-3-yl)benzamido)quinoline-6-carboxamide hydrochloride] was tested, and the pIC50 [1, 2] was 5.46 and the pIC50 (MTP; [3]) was 6.28.
For `CN(Cc1ccc(F)cc1)C(=O)[C@@H](NC(=O)c1ccc2nc(NC(=O)c3ccccc3-c3cn4ccsc4n3)ccc2c1)c1ccccc1` [Compound 3, (S)—N-(2-((4-fluorobenzyl)(methyl)amino)-2-oxo-1-phenylethyl)-2-(2-(imidazo[2,1-b]thiazol-6-yl)benzamido)quinoline-6-carboxamide], the pIC50 [1, 2] was 8.10 and the pIC50 (MTP; [3]) was 7.96.
With `CN(Cc1ccc(F)cc1)C(=O)[C@@H](NC(=O)c1nc2ccc(NC(=O)c3ccccc3-c3ccc(C(C)(C)C)cc3)cc2s1)c1ccccc1` [Compound 4, (S)-6-(4′-tert-butylbiphenyl-2-ylcarboxamido)-N-(2-((4-fluorobenzyl)(methyl)amino)-2-oxo-1-phenylethyl)benzo[d]thiazole-2-carboxamide] the pIC50 [1, 2] was 8.52 and the pIC50 (MTP; [3]) was 7.86 and 8.52.
`CCCCN(C)C(=O)[C@@H](NC(=O)c1nc2ccc(NC(=O)c3ccccc3-c3ccc(C(C)(C)C)cc3)cc2s1)c1ccccc1` [Compound 5] gave a pIC50 [1, 2] of 8.19 and a pIC50 (MTP; [3]) of 8.02.
In the case of `CC(C)(C)c1ccc(-c2ccccc2C(=O)Nc2ccc3nc(C(=O)N[C@H](C(=O)N4CCCC4)c4ccccc4)sc3c2)cc1` [Compound 7], the pIC50 [1, 2] was 9.00 and the pIC50 (MTP; [3]) was 8.59.
With `CCCCCNC(=O)[C@@H](NC(=O)c1nc2ccc(NC(=O)c3ccccc3-c3ccc(C(C)(C)C)cc3)cc2s1)c1ccccc1` [Compound 8] the pIC50 [1, 2] was 8.51 and the pIC50 (MTP; [3]) was 8.08.
Work on `CN(Cc1ccc(F)cc1)C(=O)[C@@H](NC(=O)C12CCC(CNC(=O)c3ccccc3-c3ccc(C(C)(C)C)cc3)(CC1)CC2)c1ccccc1` [Compound 10, (S)-4-((4′-tert-butylbiphenyl-2-ylcarboxamido)methyl)-N-(2-((4-fluorobenzyl)(methyl)amino)-2-oxo-1-phenylethyl)bicyclo[2.2.2]octane-1-carboxamide] yielded a pIC50 [1, 2] of 7.27 and a pIC50 (MTP; [3]) of 7.48.
Work on `CC(C)(C)c1ccc(-c2ccccc2C(=O)Nc2nc(-c3cccc(C(=O)N[C@H](C(=O)N4CCCC4)c4ccccc4)c3)cs2)cc1` [Compound 12, (S)-4′-tert-butyl-N-(4-(3-(2-oxo-1-phenyl-2-(pyrrolidin-1-yl)ethylcarbamoyl)phenyl)thiazol-2-yl)biphenyl-2-carboxamide] yielded a pIC50 [1, 2] of 7.39 and a pIC50 (MTP; [3]) of 8.70.
Molecule `CC(C)(C)c1ccc(-c2ccccc2C(=O)Nc2ccc3nc(C(=O)N[C@H](C(=O)N4CCC(F)(F)C4)c4ccccc4)sc3c2)cc1` [Compound 14] has a pIC50 [1, 2] of 8.06 and a pIC50 (MTP; [3]) of 8.28.
Molecule `CN(Cc1ccc(F)cc1)C(=O)[C@@H](NC(=O)c1nc2ccc(NC(=O)c3ccccc3-c3cn4ccsc4n3)cc2s1)c1ccccc1` [Compound 24, (S)—N-(2-((4-fluorobenzyl)(methyl)amino)-2-oxo-1-phenylethyl)-6-(2-(imidazo[2,1-b]thiazol-6-yl)benzamido)benzo[d]thiazole-2-carboxamide] has a pIC50 [1, 2] of 7.63 and a pIC50 (MTP; [3]) of 7.82.
Molecule `CN(Cc1ccc(F)cc1)C(=O)[C@@H](NC(=O)c1nc2ccc(NC(=O)c3ccccc3-n3cccc3)cc2s1)c1ccccc1` [Compound 30] has a pIC50 [1, 2] of 7.51 and a pIC50 (MTP; [3]) of 7.35.
`CN(Cc1ccc(F)cc1)C(=O)[C@@H](NC(=O)c1nc2ccc(NC(=O)c3ccccc3-c3ccc(C(F)(F)F)cc3)cc2s1)c1ccccc1` [Compound 32] gave a pIC50 [1, 2] of 7.76 and a pIC50 (MTP; [3]) of 6.84.
Work on `CN(Cc1ccc(F)cc1)C(=O)[C@@H](NC(=O)c1cn2cc(NC(=O)c3ccccc3-c3ccc(C(C)(C)C)cc3)ccc2n1)c1ccccc1` [Compound 33, (S)-6-(4′-tert-butylbiphenyl-2-ylcarboxamido)-N-(2-((4-fluorobenzyl)(methyl)amino)-2-oxo-1-phenylethyl)imidazo[1,2-a]pyridine-2-carboxamide] yielded a pIC50 [1, 2] of 8.19 and a pIC50 (MTP; [3]) of 8.15.
With `CC(C)(C)c1ccc(-c2ccccc2C(=O)Nc2nc(-c3ccc(C(=O)N[C@H](C(=O)N4CCCC4)c4ccccc4)cc3)cs2)cc1` [Compound 36, (S)-4′-tert-butyl-N-(4-(4-(2-oxo-1-phenyl-2-(pyrrolidin-1-yl)ethylcarbamoyl)phenyl)thiazol-2-yl)biphenyl-2-carboxamide] the pIC50 [1, 2] was 8.17 and the pIC50 (MTP; [3]) was 8.24.
With `CN(Cc1ccc(F)cc1)C(=O)[C@@H](NC(=O)c1nc2ccc(NC(=O)c3ccccc3-c3csc(-c4ccccc4)n3)cc2s1)c1ccccc1` [Compound 38] the pIC50 [1, 2] was 7.65 and the pIC50 (MTP; [3]) was 7.62.
In the case of `CN(Cc1ccc(F)cc1)C(=O)[C@@H](NC(=O)c1nc2ccc(NC(=O)c3ccccc3-c3cn4ccccc4n3)cc2s1)c1ccccc1` [Compound 40], the pIC50 [1, 2] was 8.38 and the pIC50 (MTP; [3]) was 7.89.
`Cc1cccc(C(=O)Nc2ccc3nc(C(=O)N[C@H](C(=O)N(C)Cc4ccc(F)cc4)c4ccccc4)sc3c2)c1-c1ccc(C(C)(C)C)cc1` [Compound 41] was tested, and the pIC50 [1, 2] was 8.54 and the pIC50 (MTP; [3]) was 8.33.
With `Cc1cccc(C(=O)Nc2nc(-c3cccc(C(=O)N[C@H](C(=O)N4CCCC4)c4ccccc4)c3)cs2)c1-c1ccc(C(C)(C)C)cc1` [Compound 42] the pIC50 [1, 2] was 8.07 and the pIC50 (MTP; [3]) was 8.35.
With `CC(C)c1ccc(-c2ccccc2C(=O)Nc2ccc3nc(C(=O)N[C@H](C(=O)N(C)Cc4ccc(F)cc4)c4ccccc4)sc3c2)cc1` [Compound 54, (S)—N-(2-((4-fluorobenzyl)(methyl)amino)-2-oxo-1-phenylethyl)-6-(4′-isopropylbiphenyl-2-ylcarboxamido)benzo[d]thiazole-2-carboxamide] the pIC50 [1, 2] was 8.21 and the pIC50 (MTP; [3]) was 7.82 and 7.95.
`CC(C)c1ccc(-c2ccccc2C(=O)Nc2ccc3nc(C(=O)N[C@H](C(=O)N4CCCC4)c4ccccc4)sc3c2)cc1` [Compound 55, (S)-6-(4′-isopropylbiphenyl-2-ylcarboxamido)-N-(2-oxo-1-phenyl-2-(pyrrolidin-1-yl)ethyl)benzo[d]thiazole-2-carboxamide] was tested, and the pIC50 [1, 2] was 8.17 and the pIC50 (MTP; [3]) was 8.09 and 8.41.
